IC50 and Activity data for 23 molecules are collected here from ChEMBL document CHEMBL4011612, “4-Anilino-pyrimidine, novel aldosterone synthase (CYP11B2) inhibitors bearing pyrimidine structures” (Bioorg Med Chem Lett, 2017).

Experiment [1] addresses T1, Cytochrome P450 11B2, mitochondrial (Homo sapiens, UniProt P19099).
T1 sequence (P19099 whole entry): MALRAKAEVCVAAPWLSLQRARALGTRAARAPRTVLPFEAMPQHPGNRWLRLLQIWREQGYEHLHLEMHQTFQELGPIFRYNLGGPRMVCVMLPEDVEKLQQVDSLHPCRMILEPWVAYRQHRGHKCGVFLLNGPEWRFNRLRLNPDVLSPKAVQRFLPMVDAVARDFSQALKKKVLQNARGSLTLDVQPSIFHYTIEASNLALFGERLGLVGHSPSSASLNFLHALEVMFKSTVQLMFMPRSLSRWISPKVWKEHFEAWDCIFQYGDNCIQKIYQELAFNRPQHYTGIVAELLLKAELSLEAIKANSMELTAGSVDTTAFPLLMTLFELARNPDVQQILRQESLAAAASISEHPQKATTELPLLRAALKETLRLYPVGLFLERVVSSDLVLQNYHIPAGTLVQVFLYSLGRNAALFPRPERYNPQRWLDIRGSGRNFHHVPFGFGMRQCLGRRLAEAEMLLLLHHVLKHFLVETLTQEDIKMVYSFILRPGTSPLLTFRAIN
Description: Inhibition of human CYP11B2 expressed in HEK293A cells using deoxycorticosterone as substrate pretreated for 1 hr followed by substrate addition measured after 1 hr by HTRF assay

For experiment [2], the target named is T2, Cytochrome P450 11B2, mitochondrial (Mus musculus, UniProt P15539).
T2 sequence (P15539 whole entry): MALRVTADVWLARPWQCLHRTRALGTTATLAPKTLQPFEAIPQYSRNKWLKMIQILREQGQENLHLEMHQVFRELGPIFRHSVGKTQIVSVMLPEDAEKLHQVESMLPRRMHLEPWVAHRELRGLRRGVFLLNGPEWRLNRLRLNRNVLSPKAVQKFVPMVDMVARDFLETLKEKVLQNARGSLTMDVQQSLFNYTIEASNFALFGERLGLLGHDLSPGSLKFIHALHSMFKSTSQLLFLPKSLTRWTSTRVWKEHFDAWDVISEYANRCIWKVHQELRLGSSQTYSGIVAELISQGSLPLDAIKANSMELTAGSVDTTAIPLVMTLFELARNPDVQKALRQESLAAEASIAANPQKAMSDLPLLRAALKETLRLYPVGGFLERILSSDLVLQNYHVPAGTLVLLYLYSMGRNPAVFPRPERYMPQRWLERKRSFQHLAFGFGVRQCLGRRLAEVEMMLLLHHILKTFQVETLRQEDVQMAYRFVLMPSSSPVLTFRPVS
Description: Inhibition of mouse CYP11B2 expressed in HEK293 cells using deoxycorticosterone as substrate pretreated for 1 hr followed by substrate addition after 2 hrs by HTRF assay

The target in experiment [3] is T3, Cytochrome P450 11B1, mitochondrial (Homo sapiens, UniProt P15538).
T3 sequence (P15538 whole entry): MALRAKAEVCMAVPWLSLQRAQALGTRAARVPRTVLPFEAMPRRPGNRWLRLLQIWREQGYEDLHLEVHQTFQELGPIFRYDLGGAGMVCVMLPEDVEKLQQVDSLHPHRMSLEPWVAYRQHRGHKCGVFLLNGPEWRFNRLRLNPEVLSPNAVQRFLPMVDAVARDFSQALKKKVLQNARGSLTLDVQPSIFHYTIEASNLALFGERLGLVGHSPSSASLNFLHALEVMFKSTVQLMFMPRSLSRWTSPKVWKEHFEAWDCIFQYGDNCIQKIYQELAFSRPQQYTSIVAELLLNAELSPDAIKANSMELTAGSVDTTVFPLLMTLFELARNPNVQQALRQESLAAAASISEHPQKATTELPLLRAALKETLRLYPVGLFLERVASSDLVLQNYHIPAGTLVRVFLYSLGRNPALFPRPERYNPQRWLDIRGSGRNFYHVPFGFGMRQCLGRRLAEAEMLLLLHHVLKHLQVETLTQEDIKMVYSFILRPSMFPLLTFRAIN
The experiment in a line: Inhibition of human CYP11B1 expressed in HEK293A cells. It counts as ADME, cell-based, HEK293.

Experiment [4] is described as follows: Inhibition of monkey CYP11B2. On the set-up: species or system Macaca mulatta.
For experiment [5], the target named is T4, Cytochrome P450 11B2, mitochondrial (Rattus norvegicus, UniProt P30099).
T4 sequence (P30099 whole entry): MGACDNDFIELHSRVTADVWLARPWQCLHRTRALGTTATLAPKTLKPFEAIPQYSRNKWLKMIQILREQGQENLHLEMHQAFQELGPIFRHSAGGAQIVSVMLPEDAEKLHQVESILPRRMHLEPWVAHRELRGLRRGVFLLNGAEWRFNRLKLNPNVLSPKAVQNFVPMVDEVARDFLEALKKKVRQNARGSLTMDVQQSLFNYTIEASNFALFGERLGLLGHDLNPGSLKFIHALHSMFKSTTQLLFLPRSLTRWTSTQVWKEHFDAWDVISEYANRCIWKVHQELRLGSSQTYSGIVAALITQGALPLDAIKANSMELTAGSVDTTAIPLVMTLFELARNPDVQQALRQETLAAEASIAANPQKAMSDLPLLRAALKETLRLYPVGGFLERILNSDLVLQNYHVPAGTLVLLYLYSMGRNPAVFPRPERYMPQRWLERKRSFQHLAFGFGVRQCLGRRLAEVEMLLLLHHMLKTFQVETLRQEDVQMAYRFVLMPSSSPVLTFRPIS
The experiment in a line: Inhibition of rat CYP11B2.

Another experiment concerns Cynomolgus monkey. The experiment is described as follows: Decrease in plasma aldosterone level in furosemide-induced cynomolgus monkey at 3 mg/kg, po administered as single dose by radioimmunoassay. It counts as functional, organism-based. The conditions noted are these: Macaca fascicularis.

Active and inactive are the calls of the source. The rule behind the calls is not given here.

With `CS(=O)(=O)N1CCC(O)(c2cncnc2Nc2ccc(F)cc2)CC1`, the IC50 in experiment [1] came to 300 nM; in experiment [2], 1380 nM.

`CS(=O)(=O)N1CCC(C(=O)c2cncnc2Nc2ccc(F)cc2)CC1`: the IC50 came out at 109 nM in experiment [1] and 5100 nM in experiment [2].

In the case of `CS(=O)(=O)N1CCC(C(O)c2cncnc2Nc2ccc(F)cc2)C1` (mixture of isomers), the IC50 is 144 nM in experiment [1] and 1470 nM in experiment [2].

For the molecule `CS(=O)(=O)N1CCC(C(O)c2cncnc2Nc2cccc3ccccc23)CC1` (racemic), the half-maximal inhibitory concentration (IC50) in experiment [1] amounted to 8 nM; in experiment [3] it was 110 nM; in experiment [2], 2740 nM.

Regarding `COc1ccc(Nc2ncncc2C(O)C2CCN(S(C)(=O)=O)CC2)cc1` (racemic), the IC50 in experiment [1] is 14 nM; in experiment [2], over 10000 nM.

With `OC(c1ccccc1)c1cncnc1Nc1ccc(F)cc1` (racemic), the IC50 was 30 nM in experiment [1], 93 nM in experiment [3] and 440 nM in experiment [2].

`CS(=O)(=O)N1CCC(C(O)c2cncnc2Nc2ccc(C#N)cc2)CC1` (racemic): the IC50 worked out at 2 nM in experiment [1], 11 nM in experiment [3] and 1340 nM in experiment [2].

In the case of `CC(O)(c1cncnc1Nc1ccc(F)cc1)C1CCN(S(C)(=O)=O)CC1` (racemic), the IC50 in experiment [1] was determined as 2 nM; in experiment [3], 6 nM; in experiment [2], 102 nM.

Turning to `CCCCC(O)(c1cncnc1Nc1ccc(F)cc1)C1CCN(S(C)(=O)=O)CC1` (racemic), the values for the IC50 in experiment [1], in experiment [3] and in experiment [2] were 48 nM, 124 nM and 170 nM, respectively.

As for `CS(=O)(=O)N1CCC(C(O)c2cncnc2Nc2cccc(F)c2)CC1` (racemic), the 50% inhibitory concentration (IC50) was 5 nM in experiment [1], 13 nM in experiment [3] and 1100 nM in experiment [2].

As for `OC(c1cncnc1Nc1ccc(F)cc1)C1CCNCC1` (racemic), the figures for the IC50 in experiment [1] and in experiment [2] were 300 nM and 1310 nM, respectively.

Regarding `CS(=O)(=O)N1CCC(C(O)c2cncnc2Nc2ccccc2)CC1` (racemic), the figures for the IC50 in experiment [1], in experiment [3] and in experiment [2] were 15 nM, 42 nM and 1760 nM, respectively.

`CS(=O)(=O)N1CCC(C(O)c2cncnc2Cc2ccccc2)CC1` (racemic): in experiment [1], the IC50 turned out to be 83 nM.

In the case of `CS(=O)(=O)N1CCC(C(O)c2cncnc2Sc2ccc(F)cc2)CC1` (racemic), the IC50 turned out to be 0.4 nM in experiment [1], 0.6 nM in experiment [3] and 257 nM in experiment [2].

Turning to `CS(=O)(=O)N1CCC(C(O)c2cncnc2Nc2ccc(C(F)(F)F)cc2)CC1` (racemic), the IC50 in experiment [1] was found to be 3 nM; in experiment [3], 16 nM; in experiment [2], 798 nM.

Take `Cc1ccc(Nc2ncncc2C(O)C2CCN(S(C)(=O)=O)CC2)cc1` (racemic): the IC50 in experiment [1] stood at 8 nM; in experiment [3], 19 nM; in experiment [2], 1890 nM.

On to `CC(C)C(O)(c1cncnc1Nc1ccc(F)cc1)C1CCN(S(C)(=O)=O)CC1` (racemic), for which the IC50 is 5 nM in experiment [1], 13 nM in experiment [3] and 21 nM in experiment [2].

In the case of `CS(=O)(=O)N1CCC(C(O)c2cncnc2Nc2ccc(F)cc2)CC1` (racemic), the IC50 in experiment [1] is 3 to 3.1 nM; in experiment [4] it was 2.7 nM; in experiment [5], 300 nM; in experiment [3] it was 10 nM; in experiment [2], 300 to 301 nM.

Consider `CS(=O)(=O)N1CCC(CC(O)c2cncnc2Nc2ccc(F)cc2)CC1` (racemic), for which the IC50 was 192 nM in experiment [1] and 3130 nM in experiment [2].

`CCCC(O)c1cncnc1Nc1ccc(F)cc1` (racemic): the IC50 in experiment [1] was found to be 75 nM; in experiment [3], 181 nM; in experiment [2] it was 911 nM.

As to `CS(=O)(=O)N1CCC(C(O)(c2cncnc2Nc2ccc(F)cc2)C(F)(F)F)CC1` (racemic), the outcome in the experiment with Cynomolgus monkey was Active.

Turning to `CS(=O)(=O)N1CCC(C(O)(c2cncnc2Nc2ccc(F)cc2)C(F)(F)F)CC1` (single isomer, unassigned; isomer 1), the IC50 in experiment [1] was determined as 0.73 nM; in experiment [3], 1.1 nM; in experiment [2], 0.73 nM.

With `CS(=O)(=O)N1CCC(C(O)(c2cncnc2Nc2ccc(F)cc2)C(F)(F)F)CC1` (single isomer, unassigned; isomer 2), the values for the IC50 in experiment [1], in experiment [3] and in experiment [2] were over 100 nM, over 300 nM and over 100 nM, respectively.
